# Assay results taken from publication PMC7534351, “Imidazothiazole-based potent inhibitors of V600E-B-RAF kinase with promising anti-melanoma activity: biological and computational studies” (Journal of Enzyme Inhibition and Medicinal Chemistry, 2020).
# Where two headings read alike, the source gives them in different places.
# Columns and labels:
# RAF1 = RAF1 (Homo sapiens, UniProt P04049); test: Cell-free kinase profiling, RAF1; assay type: biochemical; settings: for One-dose (1 µM) results against RAF1 (% inhibition) / inhibition at 1 µM: mean of duplicate assays ± SEM; for inhibition at 1 µM: read-out: One-dose (1 µM) results against RAF1 (% inhibition)
# Procedure: (§1) In a final volume of 25 µL, the tested kinase (5–10 mU) was incubated with 25 mM Tris pH 7.5, 0.02 mM EDTA, 0.66 mg/mL myelin basic protein, 10 mM magnesium acetate and [γ^33P-ATP] (specific activity approx. 500 cpm/pmol, concentration as required). The reaction was initiated by the addition of the Mg-ATP mix. After incubation for 40 min at room temperature, the reaction was stopped by the addition of 5 µL of a 3% phosphoric acid solution. 10 µL of the reaction was then spotted onto a P30 filtermat and washed three times for 5 min in 75 mM phosphoric acid and once in methanol before drying and scintillation counting.
# V600E-B-RAF [1] = molecular target: T1, V600E-B-RAF (Homo sapiens, UniProt P15056, V600E); test: Cell-free kinase profiling, V600E-B-RAF; assay type: biochemical; settings: for One-dose (1 µM) results against V600E-B-RAF (% inhibition) / inhibition at 1 µM: mean of duplicate assays ± SEM; for inhibition at 1 µM: read-out: One-dose (1 µM) results against V600E-B-RAF (% inhibition)
# Procedure: The reaction was initiated by the addition of the Mg-ATP mix. After incubation for 40 min at room temperature, the reaction was stopped by the addition of 5 µL of a 3% phosphoric acid solution. 10 µL of the reaction was then spotted onto a P30 filtermat and washed three times for 5 min in 75 mM phosphoric acid and once in methanol before drying and scintillation counting.
# Target sequence in this assay (P15056 whole entry V600E): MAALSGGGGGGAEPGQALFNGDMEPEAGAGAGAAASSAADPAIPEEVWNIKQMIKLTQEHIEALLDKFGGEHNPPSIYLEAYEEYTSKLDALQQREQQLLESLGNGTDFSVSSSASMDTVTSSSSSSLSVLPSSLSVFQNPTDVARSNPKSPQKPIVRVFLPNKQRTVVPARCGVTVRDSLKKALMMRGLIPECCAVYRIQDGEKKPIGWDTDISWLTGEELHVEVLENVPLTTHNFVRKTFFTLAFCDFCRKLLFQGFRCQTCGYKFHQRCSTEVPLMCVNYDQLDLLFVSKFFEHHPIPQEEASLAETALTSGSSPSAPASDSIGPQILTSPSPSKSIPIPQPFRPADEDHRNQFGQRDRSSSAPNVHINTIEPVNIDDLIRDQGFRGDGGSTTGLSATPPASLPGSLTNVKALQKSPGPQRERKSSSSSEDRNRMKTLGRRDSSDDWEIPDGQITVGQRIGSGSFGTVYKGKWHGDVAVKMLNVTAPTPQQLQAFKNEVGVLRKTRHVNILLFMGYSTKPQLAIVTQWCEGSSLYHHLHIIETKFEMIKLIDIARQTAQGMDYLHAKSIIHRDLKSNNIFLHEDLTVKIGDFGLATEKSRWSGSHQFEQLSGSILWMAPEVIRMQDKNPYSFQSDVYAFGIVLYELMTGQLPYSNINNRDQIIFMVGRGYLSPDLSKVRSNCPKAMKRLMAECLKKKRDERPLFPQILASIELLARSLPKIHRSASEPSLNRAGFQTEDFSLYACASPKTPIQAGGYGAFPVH
# A375 melanoma cell line = test: MTT assay, A375; assay type: cell-based; settings: Homo sapiens, A-375, 48 h, mean of triplicate assays ± SEM, read-out: Antiproliferative activity (IC50 value, µM) A375
# Procedure: (§2) The melanoma and normal skin cell lines were maintained in DMEM including 10% foetal bovine serum (FBS) and 1% penicillin/streptomycin in a humid atmosphere containing 5% carbon dioxide at 37 °C. […] The cells were incubated for 48 h following treatment with the test compounds. The cellular viability was assessed by the conventional 3–(4,5-dimethylthiazol-2-yl)-2,5-diphenyltetrazolium bromide (MTT) reduction assay. MTT assays were carried out with CellTiter 96® (Promega) according to the manufacturer’s instructions. The absorbance at 590 nm was recorded using EnVision 2103 (Perkin Elmer; Boston, MA, USA). The IC50 values were calculated using GraphPad Prism 4.0 software. Triplicate testing was performed.
# [2] = test system: MDA-MB-435 melanoma cell line; test: MTT assay, MDA-MB-435; assay type: cell-based; settings: Homo sapiens, 48 h, mean of triplicate assays ± SEM, read-out: Antiproliferative activity (IC50 value, µM) MDA-MB-435
# Procedure: as §2
# four melanoma cell lines = test: MTT assay, four melanoma cell lines (range); assay type: cell-based; settings: range over A375, MDA-MB-435, SK-MEL-28, UACC-62; read-out: IC50 against four melanoma cell lines (range)
# Procedure: as §2
# [3] = test system: CCD1106K normal skin epithelial cell line; test: MTT assay, CCD1106K normal skin cells; assay type: cell-based; settings: 48 h, mean of triplicate assays ± SEM, read-out: Antiproliferative activity (IC50 value, µM) CCD1106K normal skin cells
# Procedure: as §2
# [4] = test system: UACC-62 melanoma cell line; test: MTT assay, UACC-62; assay type: cell-based; settings: Homo sapiens, 48 h, mean of triplicate assays ± SEM, read-out: Antiproliferative activity (IC50 value, µM) UACC-62
# Procedure: as §2
# 30-kinase panel = 30-kinase panel as a whole; assay type: biochemical; settings: 1 µM; all panel kinases apart from V600E-B-RAF and FLT3
# Procedure: as §1
# ROS = ROS (Homo sapiens, UniProt P08922); test: Kinase panel, ROS; assay type: biochemical; settings: mean ± SEM
# Procedure: as §1
# EGFR = EGFR (Homo sapiens, UniProt P00533); test: Kinase panel, EGFR; assay type: biochemical; settings: mean ± SEM
# Procedure: as §1
# V600E-B-RAF [5] = molecular target: T1, V600E-B-RAF; test: In-cell kinase assay (MEK1 phosphorylation ELISA in MEF-V600E-B-RAF:ER cells); assay type: cell-based; settings: MEF cell line, phospho-MEK1 readout, 90 min compound incubation; read-out: in-cell V600E-B-RAF kinase inhibition IC50
# Procedure: MEF-V600E-B-RAF:ER cells were plated in Dulbecco’s modified eagle medium (DMEM) supplemented with 10% FCS in multiwell cell culture plates. Compound incubation (90 min at 37 °C) was done in serum-free medium. […] For stimulation, cells were treated with 1 µM hydroxytamoxifen for 1 h at room temperature. After cell lysis, quantification of MEK1 phosphorylation was assessed in 96-well plates via sandwich-ELISA using a MEK1 specific capture antibody and a phospho-MEK1-Ser218/222 specific detection antibody.
# PI3K-C2α = PI3K-C2α (Homo sapiens, UniProt O00443); test: Kinase panel, PI3K-C2α; assay type: biochemical; settings: mean ± SEM
# Procedure: as §1
# KDR = KDR (Homo sapiens, UniProt P35968); test: Kinase panel, KDR; assay type: biochemical; settings: mean ± SEM
# Procedure: as §1
# TRKA = TRKA (Homo sapiens, UniProt P04629); test: Kinase panel, TRKA; assay type: biochemical; settings: mean ± SEM
# Procedure: as §1
# JAK1 = JAK1 (Homo sapiens, UniProt P23458); test: Kinase panel, JAK1; assay type: biochemical; settings: mean ± SEM
# Procedure: as §1
# LCK = LCK (Homo sapiens, UniProt P06239); test: Kinase panel, LCK; assay type: biochemical; settings: mean ± SEM
# Procedure: as §1
# JAK2 = JAK2 (Homo sapiens, UniProt O60674); test: Kinase panel, JAK2; assay type: biochemical; settings: mean ± SEM
# Procedure: as §1
# DMPK = DMPK (Homo sapiens, UniProt Q09013); test: Kinase panel, DMPK; assay type: biochemical; settings: mean ± SEM
# Procedure: as §1
# MEK2 = MEK2 (Homo sapiens, UniProt P36507); test: Kinase panel, MEK2; assay type: biochemical; settings: mean ± SEM
# Procedure: as §1
# MEK1 = MEK1 (Homo sapiens, UniProt Q02750); test: Kinase panel, MEK1; assay type: biochemical; settings: mean ± SEM
# Procedure: as §1
# cKIT = cKIT (Homo sapiens, UniProt P10721); test: Kinase panel, cKIT; assay type: biochemical; settings: mean ± SEM
# Procedure: as §1
# PDGFRβ = PDGFRβ (Homo sapiens, UniProt P09619); test: Kinase panel, PDGFRβ; assay type: biochemical; settings: mean ± SEM
# Procedure: as §1
# ABL = ABL (Homo sapiens, UniProt P00519); test: Kinase panel, ABL; assay type: biochemical; settings: mean ± SEM
# Procedure: as §1
# Aurora-A = Aurora-A (Homo sapiens, UniProt O14965); test: Kinase panel, Aurora-A; assay type: biochemical; settings: mean ± SEM
# Procedure: as §1
# [6] = test system: SK-MEL-28 melanoma cell line; test: MTT assay, SK-MEL-28; assay type: cell-based; settings: Homo sapiens, 48 h, mean of triplicate assays ± SEM, read-out: Antiproliferative activity (IC50 value, µM) SK-MEL-28
# Procedure: as §2
# A-RAF = A-RAF (Homo sapiens, UniProt P10398); test: Kinase panel, A-RAF; assay type: biochemical; settings: mean ± SEM
# Procedure: as §1
# JNK1(α1) = JNK1(α1) (Homo sapiens, UniProt P45983); test: Kinase panel, JNK1(α1); assay type: biochemical; settings: mean ± SEM
# Procedure: as §1
# VRK1 = VRK1 (Homo sapiens, UniProt Q99986); test: Kinase panel, VRK1; assay type: biochemical; settings: mean ± SEM
# Procedure: as §1
# FMS = FMS (Homo sapiens, UniProt P07333); test: Kinase panel, FMS; assay type: biochemical; settings: mean ± SEM
# Procedure: as §1
# PI3Kα = PI3Kα (Homo sapiens, UniProt P42336); test: Kinase panel, PI3Kα; assay type: biochemical; settings: mean ± SEM
# Procedure: as §1
# BTK = BTK (Homo sapiens, UniProt Q06187); test: Kinase panel, BTK; assay type: biochemical; settings: mean ± SEM
# Procedure: as §1
# ALK = ALK (Homo sapiens, UniProt Q9UM73); test: Kinase panel, ALK; assay type: biochemical; settings: mean ± SEM
# Procedure: as §1
# FLT3 = FLT3 (Homo sapiens, UniProt P36888); test: Kinase panel, FLT3; assay type: biochemical
# Procedure: as §1
# B-RAF^wt = B-RAF^wt (Homo sapiens, UniProt P15056); test: Kinase panel, B-RAF wt; assay type: biochemical; settings: mean ± SEM
# Procedure: as §1
# ErbB2 = ErbB2 (Homo sapiens, UniProt P04626); test: Kinase panel, ErbB2; assay type: biochemical; settings: mean ± SEM
# Procedure: as §1
# mTOR = mTOR (Homo sapiens, UniProt P42345); test: Kinase panel, mTOR; assay type: biochemical; settings: mean ± SEM
# Procedure: as §1
# ErbB4 = ErbB4 (Homo sapiens, UniProt Q15303); test: Kinase panel, ErbB4; assay type: biochemical; settings: mean ± SEM
# Procedure: as §1
# [7] = 10-dose mode, read-out: IC50 value (nM) against V600E-B-RAF
# [8] = from the IC50 values of Table 1, used for QSAR
# [9] = 10-dose mode, read-out: IC50 value (nM) against RAF1
# Sequence of RAF1 (P04049 whole entry): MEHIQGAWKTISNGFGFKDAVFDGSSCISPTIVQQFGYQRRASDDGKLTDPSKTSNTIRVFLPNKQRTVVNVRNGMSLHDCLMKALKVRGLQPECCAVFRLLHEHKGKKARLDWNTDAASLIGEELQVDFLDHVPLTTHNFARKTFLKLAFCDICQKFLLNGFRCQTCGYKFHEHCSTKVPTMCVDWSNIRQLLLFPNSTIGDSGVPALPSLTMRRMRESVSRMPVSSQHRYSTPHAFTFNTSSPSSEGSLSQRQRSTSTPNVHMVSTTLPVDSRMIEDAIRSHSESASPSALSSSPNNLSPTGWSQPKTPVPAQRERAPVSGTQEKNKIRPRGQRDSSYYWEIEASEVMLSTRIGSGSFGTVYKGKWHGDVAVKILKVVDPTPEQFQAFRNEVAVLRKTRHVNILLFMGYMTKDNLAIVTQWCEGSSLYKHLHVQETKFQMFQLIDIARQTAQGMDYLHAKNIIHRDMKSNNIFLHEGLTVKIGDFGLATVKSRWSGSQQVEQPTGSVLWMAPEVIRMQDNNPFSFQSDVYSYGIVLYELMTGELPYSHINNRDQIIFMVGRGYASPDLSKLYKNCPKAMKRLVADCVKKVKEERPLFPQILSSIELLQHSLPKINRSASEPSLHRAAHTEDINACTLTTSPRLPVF
# Sequence of FLT3 (P36888 27-993, species assumed): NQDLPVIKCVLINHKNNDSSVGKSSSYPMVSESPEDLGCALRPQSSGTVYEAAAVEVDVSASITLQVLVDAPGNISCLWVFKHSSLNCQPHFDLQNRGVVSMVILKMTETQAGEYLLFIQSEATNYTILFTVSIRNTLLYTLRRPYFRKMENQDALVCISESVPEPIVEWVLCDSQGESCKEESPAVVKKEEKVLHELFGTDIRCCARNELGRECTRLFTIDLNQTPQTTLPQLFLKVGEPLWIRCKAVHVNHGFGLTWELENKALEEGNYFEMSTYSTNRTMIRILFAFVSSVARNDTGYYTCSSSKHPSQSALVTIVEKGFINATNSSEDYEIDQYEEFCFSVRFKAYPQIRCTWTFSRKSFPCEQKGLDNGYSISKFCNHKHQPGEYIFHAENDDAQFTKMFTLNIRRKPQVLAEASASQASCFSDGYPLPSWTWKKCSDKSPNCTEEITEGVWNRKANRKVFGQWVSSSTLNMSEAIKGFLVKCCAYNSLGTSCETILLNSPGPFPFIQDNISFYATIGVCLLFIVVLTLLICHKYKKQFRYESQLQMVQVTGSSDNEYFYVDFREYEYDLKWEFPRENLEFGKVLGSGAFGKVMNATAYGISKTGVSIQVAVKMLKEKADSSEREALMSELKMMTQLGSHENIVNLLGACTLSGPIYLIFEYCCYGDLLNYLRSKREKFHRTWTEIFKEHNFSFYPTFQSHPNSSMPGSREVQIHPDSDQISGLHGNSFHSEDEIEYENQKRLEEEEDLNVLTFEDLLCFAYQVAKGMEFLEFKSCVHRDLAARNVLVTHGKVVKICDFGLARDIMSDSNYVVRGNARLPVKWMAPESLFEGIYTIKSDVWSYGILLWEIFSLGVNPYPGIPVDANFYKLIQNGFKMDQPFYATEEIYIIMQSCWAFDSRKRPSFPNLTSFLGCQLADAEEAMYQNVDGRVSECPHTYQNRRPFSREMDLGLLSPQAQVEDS
# Sequence of BTK (Q06187 whole entry): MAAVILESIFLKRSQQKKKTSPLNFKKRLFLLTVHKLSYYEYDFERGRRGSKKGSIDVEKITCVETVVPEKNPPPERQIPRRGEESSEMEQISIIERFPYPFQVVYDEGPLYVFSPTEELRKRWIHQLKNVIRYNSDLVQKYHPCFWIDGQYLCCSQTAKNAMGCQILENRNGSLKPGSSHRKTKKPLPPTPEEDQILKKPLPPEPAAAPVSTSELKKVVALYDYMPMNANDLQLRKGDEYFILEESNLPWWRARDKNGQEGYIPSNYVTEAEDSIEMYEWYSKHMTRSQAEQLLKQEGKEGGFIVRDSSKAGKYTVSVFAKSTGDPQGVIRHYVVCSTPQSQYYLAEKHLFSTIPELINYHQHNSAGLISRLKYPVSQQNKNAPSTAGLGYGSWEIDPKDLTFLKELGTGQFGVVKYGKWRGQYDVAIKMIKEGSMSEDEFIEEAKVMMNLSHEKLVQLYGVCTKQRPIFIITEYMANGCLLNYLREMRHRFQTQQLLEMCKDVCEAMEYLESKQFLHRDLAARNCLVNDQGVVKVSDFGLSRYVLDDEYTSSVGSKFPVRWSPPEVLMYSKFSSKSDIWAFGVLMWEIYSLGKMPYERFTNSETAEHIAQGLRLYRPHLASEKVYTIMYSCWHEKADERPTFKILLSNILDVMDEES
# Sequence of JAK1 (P23458 whole entry): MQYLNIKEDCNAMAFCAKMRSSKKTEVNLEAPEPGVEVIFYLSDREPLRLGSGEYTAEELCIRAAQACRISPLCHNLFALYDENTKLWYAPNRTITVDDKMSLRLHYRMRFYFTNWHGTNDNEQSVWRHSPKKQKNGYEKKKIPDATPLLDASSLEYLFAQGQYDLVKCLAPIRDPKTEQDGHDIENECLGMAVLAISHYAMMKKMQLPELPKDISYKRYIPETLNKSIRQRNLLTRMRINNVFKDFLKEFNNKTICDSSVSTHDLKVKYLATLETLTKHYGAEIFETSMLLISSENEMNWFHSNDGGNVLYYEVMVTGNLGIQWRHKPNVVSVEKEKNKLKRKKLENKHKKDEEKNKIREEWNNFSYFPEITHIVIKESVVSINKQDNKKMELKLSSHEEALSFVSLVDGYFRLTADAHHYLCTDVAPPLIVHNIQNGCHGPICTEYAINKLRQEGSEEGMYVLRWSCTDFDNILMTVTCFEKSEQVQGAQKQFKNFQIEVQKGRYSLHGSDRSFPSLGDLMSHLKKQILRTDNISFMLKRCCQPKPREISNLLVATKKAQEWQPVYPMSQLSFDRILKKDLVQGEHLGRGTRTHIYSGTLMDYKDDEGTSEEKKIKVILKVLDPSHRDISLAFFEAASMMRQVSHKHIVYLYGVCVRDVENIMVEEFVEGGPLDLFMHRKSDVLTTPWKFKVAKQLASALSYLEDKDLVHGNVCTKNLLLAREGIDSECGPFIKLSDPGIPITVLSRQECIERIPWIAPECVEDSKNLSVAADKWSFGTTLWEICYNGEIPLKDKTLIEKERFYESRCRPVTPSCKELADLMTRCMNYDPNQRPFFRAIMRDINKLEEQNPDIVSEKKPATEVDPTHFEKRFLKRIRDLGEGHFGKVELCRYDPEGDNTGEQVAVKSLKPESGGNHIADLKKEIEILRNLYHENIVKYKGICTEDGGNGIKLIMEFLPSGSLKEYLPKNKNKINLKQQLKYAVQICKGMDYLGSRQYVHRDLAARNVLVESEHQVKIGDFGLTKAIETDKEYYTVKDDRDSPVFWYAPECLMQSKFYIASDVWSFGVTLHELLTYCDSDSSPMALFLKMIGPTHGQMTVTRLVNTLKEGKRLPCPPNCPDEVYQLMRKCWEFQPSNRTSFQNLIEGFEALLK
# Sequence of LCK (P06239 whole entry): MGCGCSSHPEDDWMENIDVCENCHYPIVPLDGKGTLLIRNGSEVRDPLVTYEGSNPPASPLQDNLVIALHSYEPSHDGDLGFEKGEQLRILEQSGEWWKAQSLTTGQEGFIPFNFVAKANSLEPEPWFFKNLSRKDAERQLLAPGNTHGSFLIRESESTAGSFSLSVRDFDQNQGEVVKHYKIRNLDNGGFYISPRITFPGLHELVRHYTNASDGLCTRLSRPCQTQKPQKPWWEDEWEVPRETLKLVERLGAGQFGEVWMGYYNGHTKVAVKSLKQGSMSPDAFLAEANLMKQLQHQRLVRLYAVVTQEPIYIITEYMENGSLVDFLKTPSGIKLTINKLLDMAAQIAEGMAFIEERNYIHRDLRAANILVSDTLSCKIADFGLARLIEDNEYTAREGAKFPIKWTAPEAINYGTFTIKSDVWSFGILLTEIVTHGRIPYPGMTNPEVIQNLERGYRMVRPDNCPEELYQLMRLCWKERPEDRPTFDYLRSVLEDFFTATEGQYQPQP
# Sequence of B-RAF^wt (P15056 whole entry): as the sequence (P15056 whole entry V600E) above, with E600V counted along it
smiles,measurement,setting,value
COc1cccc(-c2nc3sccn3c2-c2ccnc(NCCNC(=O)c3ccccc3)n2)c1 [Compound 1u],One-dose (1 µM) results against RAF1 (% inhibition),RAF1,74.00% ± 0.64%
same,One-dose (1 µM) results against V600E-B-RAF (% inhibition),V600E-B-RAF [1],95.03% ± 0.66%
same,IC50,V600E-B-RAF [1]; [7],45.1 nM
same,pIC50 (V600E- B-RAF),V600E-B-RAF [1]; [8],7.346
COc1cccc(-c2nc3sccn3c2-c2ccnc(NCCNC(=O)c3ccccc3O)n2)c1 [Compound 1v],One-dose (1 µM) results against RAF1 (% inhibition),RAF1,59.25% ± 2.53%
same,One-dose (1 µM) results against V600E-B-RAF (% inhibition),V600E-B-RAF [1],90.82% ± 0.25%
same,IC50,V600E-B-RAF [1]; [7],100 nM
same,pIC50 (V600E- B-RAF),V600E-B-RAF [1]; [8],7.000
O=C(NCCNc1nccc(-c2c(-c3cccc(O)c3)nc3sccn23)n1)c1ccc(N2CCOCC2)c(C(F)(F)F)c1 [Compound 1zg],inhibition at 1 µM,RAF1,90.8%
same,IC50,RAF1; [9],158 nM
same,inhibition at 1 µM,V600E-B-RAF [1],99%
same,IC50,"V600E-B-RAF [1]; from the IC50 values of Table 1, used for QSAR, read-out: pIC50 (V600E- B-RAF) (converted)",15.8 nM
"CNC(=O)c1cc(Oc2ccc(NC(=O)Nc3ccc(Cl)c(C(F)(F)F)c3)cc2)ccn1 [Sorafenib, sorafenib, reference compound]",IC50,A375 melanoma cell line,5.45 ± 0.53 µM
same,IC50,[2],3.16 ± 0.2 µM
same,IC50,four melanoma cell lines,1.95 to 5.45 µM
same,IC50,[3],11.6 ± 0.46 µM
same,IC50,[4],1.95 ± 0.08 µM
O=C(NCCNc1nccc(-c2c(-c3cccc(O)c3)nc3sccn23)n1)c1ccccc1O [Compound 1zc],One-dose (1 µM) results against RAF1 (% inhibition),RAF1,99.32% ± 0.23%
same,IC50,RAF1; [9],10.5 nM
same,pIC50 (RAF1),RAF1; [8],7.979
same,One-dose (1 µM) results against V600E-B-RAF (% inhibition),V600E-B-RAF [1],101.07% ± 1.53%
same,IC50,V600E-B-RAF [1]; [7],1.9 nM
same,pIC50 (V600E- B-RAF),V600E-B-RAF [1]; [8],8.721
O=C(NCCNc1nccc(-c2c(-c3cccc(O)c3)nc3sccn23)n1)c1ccccc1 [Compound 1zb],IC50,A375 melanoma cell line,0.46 ± 0.03 µM
same,inhibitory effect against all the other kinases of the panel,30-kinase panel,less than 50%
same,IC50,[2],0.59 ± 0.06 µM
same,IC50,four melanoma cell lines,0.18 to 0.59 µM
same,inhibition at 1 µM,ROS,2.02%
same,inhibition at 1 µM,EGFR,19.9%
same,IC50,V600E-B-RAF [5],0.19 µM
same,inhibition at 1 µM,PI3K-C2α,50%
same,IC50,[3],9.26 ± 0.38 µM
same,inhibition at 1 µM,KDR,18.8%
same,inhibition at 1 µM,TRKA,46.7%
same,inhibition at 1 µM,JAK1,-0.26%
same,inhibition at 1 µM,LCK,12.4%
same,inhibition at 1 µM,JAK2,3.76%
same,inhibition at 1 µM,DMPK,0.84%
same,inhibition at 1 µM,MEK2,26.6%
same,inhibition at 1 µM,MEK1,1.5%
same,inhibition at 1 µM,cKIT,9.63%
same,inhibition at 1 µM,PDGFRβ,12.5%
same,inhibition at 1 µM,ABL,7.57%
same,inhibition at 1 µM,Aurora-A,49.8%
same,IC50,[6],0.38 ± 0.05 µM
same,inhibition at 1 µM,A-RAF,9.14%
same,inhibition at 1 µM,JNK1(α1),0.76%
same,inhibition at 1 µM,VRK1,3.93%
same,inhibition at 1 µM,RAF1,99.4%
same,IC50,"RAF1; from the IC50 values of Table 1, used for QSAR, read-out: pIC50 (RAF1) (converted)",8.2 nM
same,inhibition at 1 µM,FMS,12.2%
same,inhibition at 1 µM,PI3Kα,5.85%
same,inhibition at 1 µM,BTK,17%
same,inhibition at 1 µM,ALK,41.2%
same,IC50,[4],0.18 ± 0.02 µM
same,inhibition at 1 µM,"FLT3; 1 µM, mean ± SEM",73.1%
same,IC50,FLT3; read-out: IC50 (nM) against FLT3,838 nM
same,inhibition at 1 µM,B-RAF^wt,23.4%
same,inhibition at 1 µM,ErbB2,2.17%
same,inhibition at 1 µM,V600E-B-RAF [1],99.5%
same,IC50,V600E-B-RAF [1]; [7],0.978 nM
same,inhibition at 1 µM,mTOR,7.83%
same,inhibition at 1 µM,ErbB4,13.7%
